Bounds are passed on as bounds.

Consider four compounds from ChEMBL document CHEMBL2321655, “Insulin-like growth factor-1 receptor inhibitors: a potential cancer treatment: patent highlight” (ACS Med Chem Lett, 2013).

For one test, the system named is MCF7. Kind of test: Antiproliferative activity against human MCF7 cells. In kind it is functional, cell-based.
The subject of a further test is HT-29. Kind of test: Antiproliferative activity against human HT-29 cells. The test is classed as functional, cell-based.

By IC50 is commonly meant the concentration that gives 50% inhibition. As for `N#CCCNc1cc(Cl)cc2c(S(=O)(=O)N3CCOC(COc4ccccc4)C3)c(C(N)=O)[nH]c12` (stereo not drawn), the IC50 with MCF7 was below 1000 nM; with HT-29 it was 5300 nM.
The matching figures for `NC(=O)c1[nH]c2c(NC3CCOCC3)cc(Cl)cc2c1S(=O)(=O)N1CCOC(COc2ccccc2)C1` (stereo not drawn): 800 nM and 2800 nM.
Take `NC(=O)c1[nH]c2c(N)cc(Cl)cc2c1S(=O)(=O)N1CCOC(COc2ccccc2)C1` (stereo not drawn): the IC50 in the test with MCF7 was 2200 nM; in the test on HT-29 it was above 10000 nM.
The matching figures for `CCOC(=O)N1CCC(Nc2cc(Cl)cc3c(S(=O)(=O)N4CCOC(COc5ccccc5)C4)c(C(N)=O)[nH]c23)CC1` (stereo not drawn): 900 nM and 1700 nM.
